One assay concerns the target T1, human GST-DYRK1A (Homo sapiens, UniProt Q13627).
T1 construct: purified human GST-DYRK1A (full length, Thermo Scientifics) enzyme; purchased Thermo Scientifics
Description: GST-DYRK1A enzyme inhibition, ADP-Glo kinase assay. The format is biochemical. The following applies: ATP 10 μM, GST-DYRK1A full length, read-out: DYRK1 IC50. The method in brief:
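Full-length human GST-DYRK1A (10 ng) with 10 μM ATP and specific substrate in 40 mM Tris-HCl pH 7.4, 20 mM MgCl2, 0.5 mg/mL BSA, 50 μM DTT, 1 h at 25 °C. ADP formation read by ADP-Glo luminescence relative to solvent control; IC50 from three data sets.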
(In general: In ADP-Glo the light output rises with the ADP produced.)

The next assay deals with T2, human GST-CLK1 (Homo sapiens, UniProt P49759).
T2 construct: purified human GST-CLK1 (129-end, SignalChem) enzyme; purchased SignalChem
T2 sequence (P49759 129-484 limits assumed): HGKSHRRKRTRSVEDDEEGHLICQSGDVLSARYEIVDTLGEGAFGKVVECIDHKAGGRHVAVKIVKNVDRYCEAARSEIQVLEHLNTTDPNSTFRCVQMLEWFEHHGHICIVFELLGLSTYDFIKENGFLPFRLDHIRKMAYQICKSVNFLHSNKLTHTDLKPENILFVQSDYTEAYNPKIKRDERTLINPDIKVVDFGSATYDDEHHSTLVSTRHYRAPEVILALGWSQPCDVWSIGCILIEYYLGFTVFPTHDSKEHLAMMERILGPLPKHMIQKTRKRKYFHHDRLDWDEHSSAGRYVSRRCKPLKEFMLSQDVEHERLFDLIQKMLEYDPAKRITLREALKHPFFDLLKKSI
The assay can be described thus: GST-CLK1 enzyme inhibition, ADP-Glo kinase assay. The format is biochemical. The conditions noted are these: ATP 10 μM, GST-CLK1 129-end. The method in brief: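 Human GST-CLK1 (129-end, 3 ng) reacted with substrate and 10 μM ATP for 1 h at 25° C in 40 mM Tris-HCl pH 7.4, 20 mM MgCl2, 0.5 mg/mL BSA, 50 μM DTT. ADP-Glo luminescence was normalised to solvent control; IC50 (nM) from 3 data sets.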

SMILES strings stand for the structures.

This passage reports IC50 results from US20230066011A1, “PYRROLOPYRIMIDINE DERIVATIVE, AND PHARMACEUTICAL COMPOSITION FOR PREVENTING OR TREATING PROTEIN KINASE-RELATED DISEASE COMPRISING SAME AS ACTIVE INGREDIENT” (VORONOI CO., LTD., priority 2019, published 2023).

The IC50 is the concentration needed to halve the response being measured. Take `N#Cc1c[nH]c2nc(Nc3ccc(C(=O)N4CCOCC4)c4c3OCCO4)nc(N[C@@H]3CCOC3)c12` [Example 127, (R)-2-((8-(morpholine-4-carbonyl)-2,3-dihydrobenzo[b][1,4]dioxin-5-yl)amino)-4-((tetrahydrofuran-3-yl)amino)-7H-pyrrolo[2,3-d]pyrimidine-5-carbonitrile]: the IC50 was 0.301 to 1 µM on human GST-DYRK1A and less than 0.1 µM on human GST-CLK1.
Consider `COc1cc(P2(=O)CCN(C3CC3)CC2)ccc1Nc1nc(NC(C)C)c2c(C#N)c[nH]c2n1` [Example 292, 2-((4-(1-cyclopropyl-4-oxido-1,4-azaphosphinan-4-yl)-2-methoxyphenyl)a-mino)-4-(isopropylamino)-7H-pyrrolo[2,3-d]pyrimidine-5-carbonitrile], for which the values for the IC50 at human GST-DYRK1A and against human GST-CLK1 were 0.301 to 1 µM and less than 0.1 µM, respectively.
`COc1cc(P2(=O)CCN(C3CC3)CC2)ccc1Nc1nc(NCC2CCCC2)c2c(C#N)c[nH]c2n1` [Example 308, 4-((cyclo-pentylmeth-yl)amino)-2-((4-(1-cyclopropyl-4-oxido-1,4-azaphosphinan-4-yl)-2-methoxyphenyl)a-mino)-7H-pyrrolo[2,3-d]pyrimidine-5-carbonitrile]: the IC50 at human GST-DYRK1A and against human GST-CLK1 was 0.301 to 1 µM each time.
As to `N#Cc1c[nH]c2nc(Nc3ccc(C(=O)N4CC(CO)(CO)C4)c4c3OCCO4)nc(NCC3CC3)c12` [Example 338, 2-((8-(3,3-bis (hydroxymethyl)azetidine-1-carbonyl)-2,3-dihydrobenzo [b][1,4]dioxin-5-yl)amino)-4-((cyclopropyl-meth-yl)amino)-7H-pyrrolo[2,3-d]pyrimidine-5-carbonitrile], the IC50 is 0.101 to 0.3 µM on human GST-DYRK1A and less than 0.1 µM at human GST-CLK1.
Turning to `CC(C)CNc1nc(Nc2ccc(C(=O)N3CC(CO)(CO)C3)c3c2OCCO3)nc2[nH]cc(C#N)c12` [Example 328, 2-((8-(3,3-bis (hydroxymethyl)azetidine-1-carbonyl)-2,3-dihydrobenzo[b] [1,4]dioxin-5-yl)amino)-4-(isobutylamino)-7H-pyrrolo[2,3-d]pyrimidine-5-carbonitrile], the 50% inhibitory concentration (IC50) was 0.301 to 1 µM on human GST-DYRK1A and less than 0.1 µM against human GST-CLK1.
With `CCNc1nc(Nc2ccc(C(=O)N3CCC(N4CCOCC4)CC3)c3c2OCCO3)nc2[nH]cc(C#N)c12` [Example 258, 4-(ethylamino)-2-((8-(4-morpholinopiperidine-1-carbonyl)-2,3-dihydrobenzo[b][1,4]dioxin-5-yl)amino)-7H-pyrrolo[2,3-d]pyrimidine-5-carbonitrile], the IC50 on human GST-DYRK1A is 0.301 to 1 µM; at human GST-CLK1, less than 0.1 µM.
For `COc1cc(P2(=O)CCN(C3COC3)CC2)ccc1Nc1nc(N[C@@H]2CCOC2)c2c(C#N)c[nH]c2n1` [Example 299, (R)-2-((2-methoxy-4-(1-(oxetan-3-yl)-4-oxido-1,4-azaphosphinan-4-yl)phenyl)amino)-4-((tetrahydrofuran-3-yl)amino)-7H-pyrrolo[2,3-d]pyrimidine-5-carbonitrile], in that order: 0.301 to 1 µM and 0.101 to 0.3 µM.
On to `COc1cc(P2(=O)CCN(C3COC3)CC2)ccc1Nc1nc(NC(C)C)c2c(C#N)c[nH]c2n1` [Example 293, 4-(isopropylamino)-2-((2-methoxy-4-(1-(oxetan-3-yl)-4-oxido-1,4-azaphosphinan-4-yl)phenyl)amino)-7H-pyrrolo[2,3-d]pyrimidine-5-carbonitrile], for which the IC50 at human GST-DYRK1A was 0.101 to 0.3 µM; at human GST-CLK1 it was less than 0.1 µM.
In the case of `O=C(c1ccc(Nc2nc(NCC3CCC3)c3c(C(F)(F)F)c[nH]c3n2)c2c1CCO2)N1CCC(N2CCOCC2)CC1` [Example 462, (7-((4-((cyclo-butylmethyl)amino)-5-(trifluoromethyl)-7H-pyrrolo[2,3-d]pyrimidin-2-yl)amino)-2,3-dihydrobenzo-furan-4-yl)(4-morpho-linopiperidin-1-yl)methanone], the IC50 is 0.101 to 0.3 µM at human GST-DYRK1A and 0.301 to 1 µM against human GST-CLK1.
In the case of `COc1cc(P2(=O)CCN(C3COC3)CC2)ccc1Nc1nc(NC2CCCC2)c2cc[nH]c2n1` [Example 239, 4-(4-((4-(cyclopentylamino)-7H-pyrrolo[2,3-d]pyrimidin-2-yl)amino)-3-methoxyphenyl)-1-(oxetan-3-yl)-1,4-azaphosphinane 4-oxide], the IC50 at human GST-DYRK1A and against human GST-CLK1 was 0.301 to 1 µM each time.
Consider `COCCNc1nc(Nc2ccc(P(C)(C)=O)cc2OC)nc2[nH]cc(C#N)c12` [Example 115, 2-((4-(dimethylphosphoryl)-2-methoxyphenyl)amino)-4-((2-methoxyethyl)amino)-7H-pyrrolo[2,3-d]pyrimidine-5-carbonitrile], for which the IC50 is 0.301 to 1 µM at human GST-DYRK1A and less than 0.1 µM against human GST-CLK1.
Turning to `CC[C@H](C)Nc1nc(Nc2ccc(S(=O)(=O)N3CCOCC3)cc2OC)nc2[nH]cc(C(F)(F)F)c12` [Example 379, (S)-N^4-(sec-butyl)-N^2-(2-methoxy-4-(morpholino-sulfonyl)phenyl)-5-(trifluoromethyl)-7H-pyrrolo[2,3-d]pyrimidine-2,4-diamine], the IC50 on human GST-DYRK1A and against human GST-CLK1 was 0.301 to 1 µM in each case.
Regarding `CCCCNc1nc(Nc2ccc(P(C)(C)=O)cc2OC)nc2[nH]cc(C#N)c12` [Example 275, 4-(butylamino)-2-((4-(dimethylphosphoryl)-2-methoxyphenyl)amino)-7H-pyrrolo[2,3-d]pyrimidine-5-carbonitrile], the IC50 lay in the range of 0.301 to 1 µM at human GST-DYRK1A and 0.101 to 0.3 µM against human GST-CLK1.
Turning to `CCCNc1nc(Nc2ccc(C(=O)N3CCN(C4COC4)CC3)c3c2OCCO3)nc2[nH]cc(C#N)c12` [Example 284, 2-((8-(4-(oxetan-3-yl)piperazine-1-carbonyl)-2,3-dihydrobenzo[b] [1,4]dioxin-5-yl)amino)-4-(propylamino)-7H-pyrrolo[2,3-d]pyrimidine-5-carbonitrile], the IC50 on human GST-DYRK1A was 0.301 to 1 µM; at human GST-CLK1, less than 0.1 µM.
For `N#Cc1c[nH]c2nc(Nc3ccc(C(=O)N4CC(CO)(CO)C4)c4c3OCCO4)nc(NC3CCOCC3)c12` [Example 337, 2-((8-(3,3-bis (hydroxymethyl)azetidine-1-carbonyl)-2,3-dihydrobenzo[b] [1,4]dioxin-5-yl)amino)-4-((tetrahydro-2H-pyran-4-yl)amino)-7H-pyrrolo[2,3-d]pyrimidine-5-carbonitrile], in that order: 0.301 to 1 µM and less than 0.1 µM.
Taken in the same sequence, the figures for `COCCNc1nc(Nc2ccc(S(C)(=O)=O)cc2OC)nc2[nH]cc(C(N)=O)c12` [Example 234, 2-((2-methoxy-4-(methylsulfonyl)phenyl)amino)-4-((2-methoxy)amino)-7H-pyrrolo[2,3-d]pyrimidine-5-carboxamide] were 0.301 to 1 µM and 0.301 to 1 µM.
For `COc1cc(P(C)(C)=O)ccc1Nc1nc(NC2CCC2)c2c(C#N)c[nH]c2n1` [Example 268, 4-(cyclobutylamino)-2-((4-(dimethylphosphoryl)-2-methoxyphenyl)amino)-7H-pyrrolo[2,3-d]pyrimidine-5-carbonitrile], in that order: 0.301 to 1 µM and 0.101 to 0.3 µM.
Consider `O=C(c1ccc(Nc2nc(NCC3CC3)c3c(C(F)(F)F)c[nH]c3n2)c2c1OCCO2)N1CCOCC1` [Example 201, (8-((4-((cyclopropylmethyl)amino)-5-(trifluoromethyl)-7H-pyrrolo[2,3-d]pyrimidin-2-yl)amino)-2,3-dihydrobenzo[b][1,4]dioxin-5-yl)(morpholino)methanone], for which the IC50 at human GST-DYRK1A is 0.301 to 1 µM; at human GST-CLK1 it was less than 0.1 µM.
`CC(C)CNc1nc(Nc2ccc(C(=O)N3CCOCC3)c3c2OCC3)nc2[nH]cc(C#N)c12` [Example 350, 4-(isobutyl-amino)-2-((4-(morpholine-4-carbonyl)-2,3-dihydrobenzo-furan-7-yl)amino)-7H-pyrrolo[2,3-d]pyrimidine-5-carbonitrile]: the IC50 was 0.301 to 1 µM at human GST-DYRK1A and less than 0.1 µM at human GST-CLK1.
Turning to `CC(C)CNc1nc(Nc2ccc(C(=O)N3CCC(N4CCOCC4)CC3)c3c2OCCO3)nc2[nH]cc(C(F)(F)F)c12` [Example 199, (8-((4-(isobutylamino)-5-(trifluoromethyl)-7H-pyrrolo[2,3-d]pyrimidin-2-yl)amino)-2,3-dihydrobenzo[b][1,4]dioxin-5-yl)(4-morpholinopiperidin-1-yl)methanone], the IC50 was 0.301 to 1 µM at human GST-DYRK1A and less than 0.1 µM against human GST-CLK1.
For the compound `N#Cc1c[nH]c2nc(Nc3ccc(C(=O)N4CC(CO)(CO)C4)c4c3OCCO4)nc(NC3CCCC3)c12` [Example 334, 2-((8-(3,3-bis (hydroxymethyl)azetidine-1-carbonyl)-2,3-dihydrobenzo[b] [1,4]dioxin-5-yl)amino)-4-(cyclopentyl-amino)-7H-pyrrolo[2,3-d]pyrimidine-5-carbonitrile], the IC50 at human GST-DYRK1A was 0.301 to 1 µM; at human GST-CLK1, less than 0.1 µM.
For the compound `CC[C@@H](C)Nc1nc(Nc2ccc(S(=O)(=O)N3CCC(N4CCOCC4)CC3)cc2OC)nc2[nH]ccc12` [Example 15, (R)-N^4-(sec-butyl)-N^2-(2-methoxy-4-((4-morpholinopiperidin-1-yl)sulfonyl)phenyl)-7H-pyrrolo[2,3-d]pyrimidine-2,4-diamine], the IC50 at human GST-DYRK1A and on human GST-CLK1 was 0.301 to 1 µM each time.
As for `COc1cc(P(C)(C)=O)ccc1Nc1nc(N[C@H]2CCOC2)c2c(C#N)c[nH]c2n1` [Example 271, (S)-2-((4-(dimethylphosphoryl)-2-methoxyphenyl)amino)-4-((tetrahydrofuran-3-yl)amino)-7H-pyrrolo[2,3-d]pyrimidine-5-carbonitrile], the IC50 at human GST-DYRK1A is 0.301 to 1 µM; against human GST-CLK1 it was 0.101 to 0.3 µM.
